Experimental data as given in patent US12318372B2, “Formulations with enhanced SN-38 solubility and oral absorption” (TaiRx Inc., priority 2021, dated 2025).
Where “and” joins values, the source holds several entries; their conditions need not be identical. Identical values can stand only once. Entries after “also recorded” stand apart in the source; their conditions may differ. Counter-ions that a name gives are not always drawn. Like-named read-outs stand apart in the source and are kept apart here.

Legend:
[1] = cited from earlier work
[2] = system: HCT-116 colon cancer cells; test: Study #1 orthotopic HCT-116 xenograft efficacy; format: in vivo, mouse
[3] = cited from earlier work; remark: listed apart in the source
[4] = cited from earlier work; remark: listed apart in the source
[5] = guinea pig; cited from earlier work
[6] = rabbit; cited from earlier work
[7] = Visual SN-38 solubilization in PLGA/NMP mixtures; format: physicochemical; conditions: PLGA (75:25):NMP mixture at mass ratio 1:2
Description: SN-38 solubilization in these two PLGA/NMP solution mixtures is then tested with a SN-38 starting concentration of 20 mg/g and then decreasing the tested concentration if needed. Table 13 presents the results of macroscopic observation of tentative SN-38 solubilization in PLGA/NMP mixtures

[8] = SN-38 solubility at saturation in excipients and excipient mixtures (HPLC); format: physicochemical
Description: The saturation is obtained by adding gradually an excess of active ingredient (maximum target being 50 mg/mL) to a given volume of test medium. […]
The supernatant is then isolated, diluted in a solvent mixture allowing its injection into the chromatographic system. The concentration in solution for each medium is determined by HPLC (external standardization).

[9] = SN-38 content of NMP/VitE TPGS/polymer gels (HPLC); format: physicochemical
Description: For HPC, both above tested percentages (2 and 5%) will be further tested with SN-38. […] This starting solution is prepared by over stirred 24 hours at 20° C. and then filtered before being used for into polymer solubilization.
The three polymers of interest (HPMC E4M, HPMC E10M, and HPC Klucel) are weighed (according to the above selected percentages) and added for solubilization and under stirring onto the SN-38 solution in NMP/VitE TPGS 50/20 mixture. After 24 h stirring at 20° C., the 3 samples are visually observed, and their SN-38 content is assessed by HPLC (after dilution in an appropriate solvent).

[10] = times more cytotoxic than CPT-11; cited from earlier work
[11] = system: HCT-116 colon cancer cells; format: in vivo; conditions: 25.9 mg/kg i.v. Q4D x 3 wks
[12] = system: HCT-116 colon cancer cells; test: Study #2 follow up orthotopic HCT-116 xenograft efficacy; format: in vivo, female BALB/c nude mice; conditions: 25.9 mg/kg i.v. BIW x 6 doses

## CCc1c2c(nc3ccc(OC(=O)N4CCC(N5CCCCC5)CC4)cc13)-c1cc3c(c(=O)n1C2)COC(=O)[C@]3(O)CC [CPT-11, irinotecan]
[1]; 20 mg/kg i.v.
  dogs showing emesis: five of six
[1]; dogs, 40 mg/kg
  mortality: the two dogs died 3 and 6 minutes later
  time to emesis: 1 min
[2]; 50 mg/kg i.p. Q4D x 3 wks
  Tumor weights on Day 34 Geometric mean: 24.9 mg
  Tumor weights on Day 34 TGI %: 85%
[3]; humans, at the end of a 24-hour infusion
  irinotecan remained unhydrolyzed: 33-66%
[3]; in humans
  bioconversion to SN-38: ~5%
[4]; HCl salt, in water
  aqueous solubility: 25 mM
[5]
  antigenic potential: has shown antigenic potential
[6]
  antigenic potential: has shown antigenic potential

## CCc1c2c(nc3ccc(O)cc13)-c1cc3c(c(=O)n1C2)COC(=O)[C@]3(O)CC [SN-38, 7-Ethyl-10-hydroxy-camptothecin]
[1]; dogs, 11.6 mg/kg i.v.
  emesis or nausea: no emesis or nausea was noted
[7]
  Concentration at which SN-38 is soluble: 10 mg/g
[8]; in Cremophor EL at 30% in water, 20° C.
  SN-38 solubility: 0.017 mg/g
[8]; in Labrafil M1944CS, 20° C.
  SN-38 solubility: 0.054 mg/g
[8]; in NMP/VitE TPGS (50/20 w/w), 20° C.
  SN-38 solubility: 18.51 mg/g
[8]; in NMP/VitE TPGS/Capmul MCM/Tween 20 (50/20/10/20 w/w)
  SN-38 solubility: 7.57 mg/g
[8]; in NMP/VitE TPGS/GELUCIRE (50/20/20), 20° C.
  SN-38 solubility: 9.2 mg/g and 9.25 mg/g
[8]; in NMP/VitE TPGS/Isopropyl myristate/Solutol HS15 (50/20/10/20 w/w)
  SN-38 solubility: 9.04 mg/g
[8]; in NMP/VitE TPGS/KOLLIDON VA64 (50/20/20), 20° C.
  SN-38 solubility: 15.6 mg/g and 15.65 mg/g
[8]; in NMP/VitE TPGS/LUTROL F127 (50/20/20), 25° C.
  SN-38 solubility: 10.0 mg/g and 10.02 mg/g
[8]; in NMP/VitE TPGS/Labrafac Lipophile WL1349/Lauroglycol 90 (50/20/10/20 w/w)
  SN-38 solubility: 2.76 mg/g
[8]; in NMP/VitE TPGS/Mygliol 812/Propylene glycol (50/20/10/20 w/w)
  SN-38 solubility: 5.95 mg/g
[8]; in NMP, 24 h stirring at 20° C.
  SN-38 solubility: 42 mg/g
[8]; in Propylene glycol, 20° C.
  SN-38 solubility: 1.15 mg/g
[8]; in VitE TPGS at 20% in water, 20° C.
  SN-38 solubility: ≈0.01 mg/g
[8]; in all other tested media (other than NMP, propylene glycol, Capmul MCM)
  SN-38 solubility: lower than 0.054 mg/g
[4]; Zhang et al. 2004
  solubility in water: < 40 µg/mL
[4]; background statement b6
  solubility (S): < 10 µg/mL
[5]
  antigenic potential: no antigenic potential
[9]; 2% HPC (vs NMP) in NMP/VitE TPGS (50 w/20 w)
  SN-38 content calculated by HPLC: 14.32 mg/g
[9]; 4% HPMC E4M (vs NMP) in NMP/VitE TPGS (50 w/20 w)
  SN-38 content calculated by HPLC: 14.03 mg/g
[9]; 4% HPMC E10M (vs NMP) in NMP/VitE TPGS (50 w/20 w)
  SN-38 content calculated by HPLC: 14.00 mg/g
[9]; 5% HPC (vs NMP) in NMP/VitE TPGS (50 w/20 w), 24 h stirring at 20° C.
  SN-38 content calculated by HPLC: 13.95 mg/g
[9]; HPMC E4M, HPMC E10M or HPC added onto 15 mg/g SN-38 solution in NMP/VitE TPGS 50/20
  SN-38 precipitation on addition of gelling polymers: No SN-38 precipitation is observed; also recorded: without precipitation of SN-38
[9]; No polymer in NMP/VitE TPGS (50 w/20 w), filtered 15 mg/g starting solution
  SN-38 content calculated by HPLC: 14.47 mg/g
[10]
  cytotoxicity relative to CPT-11: 200-2000 times

## CCc1c2c(nc3ccc(OC(=O)N4CCC(N5CCCCC5)CC4)cc13)-c1cc3c(c(=O)n1C2)COC(=O)[C@]3(O)CC [Irinotecan HCL trihydrate, Irinotecan HCL Trihydrate]
[11]
  Tumor weights on Day 34 Geometric mean: 428.6 mg
  Tumor weights on Day 34 TGI %: 60%
[12]
  Tumor weights on Day 32 Geometric mean: 134.0 mg
  Tumor weights on Day 32 TGI %: 84%
[2]; 20.8 mg/kg i.v. BIW x 3 wks
  Tumor weights on Day 34 Geometric mean: 171.0 mg
  Tumor weights on Day 34 TGI %: 78%
